Assay results: patent US8163511B2, “Methods for the identification of LRRK2 interacting molecules” (CellZome AG, priority 2006, dated 2012)

Biological target: T1, LRRK2 (Mus musculus, UniProt Q5S006)
T1 construct: from tissue; host or cells: mouse brain
Experiment: Drug pulldown with immobilized indol ligand 91 and identification of LRRK2 by LC-MS/MS
Assay type: binding
Conditions: ligand covalently attached to Sepharose beads, mouse brain lysate, SDS elution, SDS-PAGE, twelve LRRK2 peptides identified
Method: Proteins binding to immobilized indol ligand 91 were identified using a chemical proteomics procedure. Binding proteins were purified on a resin to which indol ligand 91 was covalently attached. Bound proteins were eluted and subsequently separated by SDS-Polyacrylamide gel elecrophoresis (see FIG. 2), suitable gel bands were cut out and proteins were analyzed by LC-MS/MS mass spectrometry.
NHS-activated Sepharose 4 Fast Flow (Amersham Biosciences, 17-0906-01) was equilibrated with anhydrous DMSO (Dimethylsulfoxid, Fluka, 41648, H20<=0.005%). 1 ml of settled beads were placed in a 15 ml Falcon tube, compound stock solution (usually 100 mM in DMF or DMSO) was added (final conc. 0.2-2 μmol/ml beads) as well as 15 μl of TEA. Beads were incubated at room temperature in darkness on an end-over-end shaker (Roto Shake Genie, Scientific Industries Inc.) for 16-20 hours. Coupling efficiency was determined by HPLC. […]
Mouse brain tissue was homogenized in a Potter S homogenizer (5 ml per brain): 50 mM Tris-HCl, 1% CHAPSO, 5% glycerol, 150 mM NaCl, 1.5 mM MgCl2, 25 mM NaF, 1 mM sodium vanadate, 1 mM DTT, pH 7.5. […] The supernatant was transferred again to a fresh 50 ml falcon tube, the protein concentration was determined by a Bradford assay (BioRad) and samples containing 50 mg of protein per aliquot were prepared. […]

T1 sequence (Q5S006 whole entry V777I/K863N/C925Y/E1011G/E1190G/E1882G/Q2178N): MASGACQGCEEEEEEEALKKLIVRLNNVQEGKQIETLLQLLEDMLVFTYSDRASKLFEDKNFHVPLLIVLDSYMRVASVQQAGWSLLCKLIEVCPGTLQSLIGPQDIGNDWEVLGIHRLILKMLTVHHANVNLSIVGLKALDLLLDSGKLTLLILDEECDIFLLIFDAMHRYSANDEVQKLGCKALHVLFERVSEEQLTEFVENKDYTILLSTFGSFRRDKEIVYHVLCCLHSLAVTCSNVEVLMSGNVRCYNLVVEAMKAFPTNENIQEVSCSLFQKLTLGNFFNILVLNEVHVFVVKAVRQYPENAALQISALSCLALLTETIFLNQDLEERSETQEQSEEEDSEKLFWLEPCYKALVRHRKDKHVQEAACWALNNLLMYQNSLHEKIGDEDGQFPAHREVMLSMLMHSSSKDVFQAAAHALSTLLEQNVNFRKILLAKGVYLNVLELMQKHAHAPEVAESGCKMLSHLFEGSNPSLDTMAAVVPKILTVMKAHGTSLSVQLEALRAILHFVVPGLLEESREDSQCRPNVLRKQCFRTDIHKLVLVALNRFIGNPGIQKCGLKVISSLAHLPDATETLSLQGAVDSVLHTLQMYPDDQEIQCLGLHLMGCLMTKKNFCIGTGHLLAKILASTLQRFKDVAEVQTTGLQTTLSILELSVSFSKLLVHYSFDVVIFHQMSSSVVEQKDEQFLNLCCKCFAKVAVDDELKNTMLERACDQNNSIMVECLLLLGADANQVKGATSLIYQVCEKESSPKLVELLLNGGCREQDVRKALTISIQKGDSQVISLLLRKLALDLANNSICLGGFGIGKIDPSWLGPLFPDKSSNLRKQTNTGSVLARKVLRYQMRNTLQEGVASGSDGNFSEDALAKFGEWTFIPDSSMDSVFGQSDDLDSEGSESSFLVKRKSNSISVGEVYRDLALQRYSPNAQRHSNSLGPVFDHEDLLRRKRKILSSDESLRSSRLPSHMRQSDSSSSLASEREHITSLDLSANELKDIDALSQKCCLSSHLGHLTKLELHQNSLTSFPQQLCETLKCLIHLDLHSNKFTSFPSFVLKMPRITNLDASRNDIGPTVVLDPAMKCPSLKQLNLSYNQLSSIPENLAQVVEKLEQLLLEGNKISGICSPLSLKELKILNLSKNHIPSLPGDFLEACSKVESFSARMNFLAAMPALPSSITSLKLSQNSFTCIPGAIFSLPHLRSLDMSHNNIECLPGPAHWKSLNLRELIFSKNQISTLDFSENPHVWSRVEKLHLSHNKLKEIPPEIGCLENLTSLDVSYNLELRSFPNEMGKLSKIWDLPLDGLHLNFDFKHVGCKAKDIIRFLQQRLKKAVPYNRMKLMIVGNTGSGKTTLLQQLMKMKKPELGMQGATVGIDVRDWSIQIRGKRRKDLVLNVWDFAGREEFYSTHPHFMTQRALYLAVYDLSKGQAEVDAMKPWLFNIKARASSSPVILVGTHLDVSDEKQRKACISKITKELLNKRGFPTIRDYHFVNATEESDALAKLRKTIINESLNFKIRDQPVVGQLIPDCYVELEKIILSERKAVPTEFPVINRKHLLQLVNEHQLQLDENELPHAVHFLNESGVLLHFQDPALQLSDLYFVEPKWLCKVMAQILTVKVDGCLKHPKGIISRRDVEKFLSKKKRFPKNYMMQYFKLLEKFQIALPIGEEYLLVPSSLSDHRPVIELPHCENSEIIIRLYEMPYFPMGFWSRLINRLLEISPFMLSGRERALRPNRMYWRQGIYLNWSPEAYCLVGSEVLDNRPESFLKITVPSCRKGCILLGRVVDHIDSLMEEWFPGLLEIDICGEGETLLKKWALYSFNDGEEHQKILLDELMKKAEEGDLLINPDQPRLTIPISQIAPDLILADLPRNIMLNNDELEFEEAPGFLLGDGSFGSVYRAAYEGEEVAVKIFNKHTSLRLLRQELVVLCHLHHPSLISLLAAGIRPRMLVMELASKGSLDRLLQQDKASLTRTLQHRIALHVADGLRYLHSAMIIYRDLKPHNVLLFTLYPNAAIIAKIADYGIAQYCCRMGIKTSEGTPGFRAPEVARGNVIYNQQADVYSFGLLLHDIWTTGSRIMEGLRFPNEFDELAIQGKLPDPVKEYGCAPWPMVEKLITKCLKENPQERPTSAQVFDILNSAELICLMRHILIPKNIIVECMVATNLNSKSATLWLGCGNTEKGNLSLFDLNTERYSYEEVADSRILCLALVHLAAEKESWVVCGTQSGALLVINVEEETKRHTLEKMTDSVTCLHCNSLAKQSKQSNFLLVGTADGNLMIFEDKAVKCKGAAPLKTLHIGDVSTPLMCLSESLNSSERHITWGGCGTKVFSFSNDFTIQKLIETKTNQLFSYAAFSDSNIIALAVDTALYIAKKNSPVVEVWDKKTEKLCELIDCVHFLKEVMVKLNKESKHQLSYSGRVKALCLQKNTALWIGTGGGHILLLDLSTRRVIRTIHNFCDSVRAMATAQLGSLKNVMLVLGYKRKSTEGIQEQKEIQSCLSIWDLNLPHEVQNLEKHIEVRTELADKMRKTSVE

For `Cc1[nH]c(/C=C2\C(=O)Nc3ccc(F)cc32)c(C)c1C(=O)NCCCN` [indol ligand 91, 5-[5-Fluoro-2-oxo-1,2-dihydro-indol-(3Z)-ylidenemethyl]-2,4-dimethyl-1H-pyrrole-3-carboxylic acid (3-amino-propyl)-amide], which “enrichment/identification of LRRK2 bound to the immobilized ligand” value is on record?
The value was “can be used to enrich and characterize LRRK2 from mouse brain lysates”.
